Test results: patent publication US20210041441A1, “DISCOVERY OF NOVEL MOLECULES AND REPURPOSED DRUGS FOR RAS FAMILY GTPases” (UNM Rainforest Innovations, priority 2018, published 2021)
Entries after “also recorded” stand apart in the source; their conditions may differ. Structures can show the parent of a compound that is named as a salt.

System: Ras family GTPases (KRas WT, G12v, G13d, G12a, G12c, G12d, Q61H, Q61L, Q61R; HRas WT, HRas G12v; CDC42 WT, CDC42 L61; Rac1 WT, Rac1 L61)
Test: Multiplex flow cytometry Bodipy FL-GTP binding, compound screen and dose response
Settings: for activity or affinity relative to other compounds / selectivity among GTPases (RAS vs non-RAS, individual proteins): multiplex dose response; for class of modulation of Bodipy-GTP binding to Ras family GTPases (pan activator, pan inhibitor, selective inhibitor, mixed activity modulator): multiplex, 10 nM Bodipy FL-GTP, compound 100-0.015 μM, normalized to DMSO

CC(C)Cc1ccc(C(C)C(=O)O)cc1 (stereo not drawn) [S-(+)-Ibuprofen]
activity or affinity relative to other compounds: lower affinity than the mixture

O=c1c(O)c(-c2ccc(O)c(O)c2)oc2cc(O)ccc12 [Fisetin]
class of modulation of Bodipy-GTP binding to Ras family GTPases (pan activator, pan inhibitor, selective inhibitor, mixed activity modulator): pan inhibitors

COc1ccc(C(=O)c2ccccc2O)c(O)c1 [Dioxybenzone]
class of modulation of Bodipy-GTP binding to Ras family GTPases (pan activator, pan inhibitor, selective inhibitor, mixed activity modulator): pan activators | class of modulation of Bodipy-GTP binding to Ras family GTPases (pan activator, pan inhibitor, selective inhibitor, mixed activity modulator) (listed as dioxybenzone): activators

Nc1nc2ncc(CNc3ccc(C(=O)N[C@@H](CCC(=O)O)C(=O)O)cc3)nc2c(=O)[nH]1 [Folic acid]
class of modulation of Bodipy-GTP binding to Ras family GTPases (pan activator, pan inhibitor, selective inhibitor, mixed activity modulator): pan inhibitors

COc1ccc2cc([C@H](C)C(=O)O)ccc2c1 [Naproxen]
class of modulation of Bodipy-GTP binding to Ras family GTPases (pan activator, pan inhibitor, selective inhibitor, mixed activity modulator): pan activators | class of modulation of Bodipy-GTP binding to Ras family GTPases (pan activator, pan inhibitor, selective inhibitor, mixed activity modulator) (listed as naproxen): Pan activators

Cc1c(Cl)cccc1Nc1ccccc1C(=O)O [Tolfenamic acid]
class of modulation of Bodipy-GTP binding to Ras family GTPases (pan activator, pan inhibitor, selective inhibitor, mixed activity modulator): pan activators | class of modulation of Bodipy-GTP binding to Ras family GTPases (pan activator, pan inhibitor, selective inhibitor, mixed activity modulator) (listed as tolfenamic acid): Pan activators

CC1=CC(=O)c2ccccc2C1=O [Menindione]
class of modulation of Bodipy-GTP binding to Ras family GTPases (pan activator, pan inhibitor, selective inhibitor, mixed activity modulator): PanActivators

CN1CCC(=C2c3ccccc3Sc3ccccc32)CC1 [Pimethixene Maleate]
class of modulation of Bodipy-GTP binding to Ras family GTPases (pan activator, pan inhibitor, selective inhibitor, mixed activity modulator): mixed activity modulators | class of modulation of Bodipy-GTP binding to Ras family GTPases (pan activator, pan inhibitor, selective inhibitor, mixed activity modulator) (listed as pimethixene maleate): modulators with mixed activity | class of modulation of Bodipy-GTP binding to Ras family GTPases (pan activator, pan inhibitor, selective inhibitor, mixed activity modulator) (listed as pimethixine maleate): mixed activity

CCC(Cc1c(I)cc(I)c(N)c1I)C(=O)O (centres unmarked) [Iopanic acid]
class of modulation of Bodipy-GTP binding to Ras family GTPases (pan activator, pan inhibitor, selective inhibitor, mixed activity modulator): pan activators | class of modulation of Bodipy-GTP binding to Ras family GTPases (pan activator, pan inhibitor, selective inhibitor, mixed activity modulator) (listed as iopanic acid): activators

CCN(CC)CCN(Cc1ccc(-c2ccc(C(F)(F)F)cc2)cc1)C(=O)Cn1c(SCc2ccc(F)cc2)nc(=O)c2c1CCC2 [Darapladib]
class of modulation of Bodipy-GTP binding to Ras family GTPases (pan activator, pan inhibitor, selective inhibitor, mixed activity modulator): mixed activity modulators | class of modulation of Bodipy-GTP binding to Ras family GTPases (pan activator, pan inhibitor, selective inhibitor, mixed activity modulator) (listed as darapladib): modulators with mixed activity

COc1ccc2cc([C@@H](C)C(=O)[O-])ccc2c1.[Na+] [(R)-Naproxen sodium salt]
activity or affinity relative to other compounds: greater activity than did the naproxen sample | class of modulation of Bodipy-GTP binding to Ras family GTPases (pan activator, pan inhibitor, selective inhibitor, mixed activity modulator) (listed as (R)-naproxen sodium salt, sodium salt): Pan activators | class of modulation of Bodipy-GTP binding to Ras family GTPases (pan activator, pan inhibitor, selective inhibitor, mixed activity modulator) (sodium salt): pan activators

Cc1cc(I)ccc1Nc1c(C(=O)NOCC2CC2)cc(F)c(F)c1F [PD 198306]
class of modulation of Bodipy-GTP binding to Ras family GTPases (pan activator, pan inhibitor, selective inhibitor, mixed activity modulator): mixed activity modulators | class of modulation of Bodipy-GTP binding to Ras family GTPases (pan activator, pan inhibitor, selective inhibitor, mixed activity modulator) (listed as PD198306): mixed activity with mostly activation, but some inhibition as well; also recorded: modulators with mixed activity

CC1(C)CCC2=C(O1)c1ccccc1C(=O)C2=O [Beta Lapachone]
selectivity among GTPases (RAS vs non-RAS, individual proteins): RAS activator/non-RAS inhibitor | class of modulation of Bodipy-GTP binding to Ras family GTPases (pan activator, pan inhibitor, selective inhibitor, mixed activity modulator): mixed activity modulators | class of modulation of Bodipy-GTP binding to Ras family GTPases (pan activator, pan inhibitor, selective inhibitor, mixed activity modulator) (listed as B-lapachone): mixed activity | class of modulation of Bodipy-GTP binding to Ras family GTPases (pan activator, pan inhibitor, selective inhibitor, mixed activity modulator) (listed as Beta-lapachone): modulators with mixed activity

CN(C)CCCn1cc(C2=C(c3c[nH]c4ccccc34)C(=O)NC2=O)c2ccccc21 [GF109203X]
selectivity among GTPases (RAS vs non-RAS, individual proteins): selective activator non-RAS | class of modulation of Bodipy-GTP binding to Ras family GTPases (pan activator, pan inhibitor, selective inhibitor, mixed activity modulator): modulators with mixed activity

O=C(NCCS(=O)(=O)c1ccc(C(F)(F)F)cn1)c1ccc(Cl)cc1 [GSK 3787]
class of modulation of Bodipy-GTP binding to Ras family GTPases (pan activator, pan inhibitor, selective inhibitor, mixed activity modulator): pan inhibitors | class of modulation of Bodipy-GTP binding to Ras family GTPases (pan activator, pan inhibitor, selective inhibitor, mixed activity modulator) (listed as GSK3787): Pan inhibitors

CC(C(=O)O)c1ccc(-c2ccccc2)c(F)c1 (centres unmarked) [Flurbiprofen]
class of modulation of Bodipy-GTP binding to Ras family GTPases (pan activator, pan inhibitor, selective inhibitor, mixed activity modulator): pan activators | class of modulation of Bodipy-GTP binding to Ras family GTPases (pan activator, pan inhibitor, selective inhibitor, mixed activity modulator) (listed as fluribuprofen): Pan activators

O=C(Oc1ccccc1C(=O)O)c1ccccc1O [Salsalate]
class of modulation of Bodipy-GTP binding to Ras family GTPases (pan activator, pan inhibitor, selective inhibitor, mixed activity modulator): pan activators | class of modulation of Bodipy-GTP binding to Ras family GTPases (pan activator, pan inhibitor, selective inhibitor, mixed activity modulator) (listed as salsalate): Pan activators

O=C1c2ccccc2S(=O)(=O)N1CCCCN1CCN(c2ncccn2)CC1 [Ipsapirone]
class of modulation of Bodipy-GTP binding to Ras family GTPases (pan activator, pan inhibitor, selective inhibitor, mixed activity modulator): mixed activity modulators | class of modulation of Bodipy-GTP binding to Ras family GTPases (pan activator, pan inhibitor, selective inhibitor, mixed activity modulator) (listed as ipsapirone): modulators with mixed activity

N#CSc1cc(SC#N)c(N)nc1N [PR-619]
class of modulation of Bodipy-GTP binding to Ras family GTPases (pan activator, pan inhibitor, selective inhibitor, mixed activity modulator): pan inhibitors

O=C(O)c1ccccc1Nc1cccc(C(F)(F)F)c1 [Flufenamic Acid]
class of modulation of Bodipy-GTP binding to Ras family GTPases (pan activator, pan inhibitor, selective inhibitor, mixed activity modulator): pan activators | class of modulation of Bodipy-GTP binding to Ras family GTPases (pan activator, pan inhibitor, selective inhibitor, mixed activity modulator) (listed as fufenamic acid): Pan activators

Cc1cccc(Nc2ccccc2C(=O)O)c1C [Mefenamic Acid]
class of modulation of Bodipy-GTP binding to Ras family GTPases (pan activator, pan inhibitor, selective inhibitor, mixed activity modulator): pan activators | class of modulation of Bodipy-GTP binding to Ras family GTPases (pan activator, pan inhibitor, selective inhibitor, mixed activity modulator) (listed as mefenamic acid): Pan activators

Oc1ccc2ccccc2c1SSc1c(O)ccc2ccccc12 [IPA 3]
class of modulation of Bodipy-GTP binding to Ras family GTPases (pan activator, pan inhibitor, selective inhibitor, mixed activity modulator): pan inhibitors

Cc1ccc(Cl)c(Nc2ccccc2C(=O)O)c1Cl [Meclofenamic acid sodium salt monohydrate]
class of modulation of Bodipy-GTP binding to Ras family GTPases (pan activator, pan inhibitor, selective inhibitor, mixed activity modulator) (listed as meclofenamic acid sodium salt monohydrate, sodium salt monohydrate): Pan activators | class of modulation of Bodipy-GTP binding to Ras family GTPases (pan activator, pan inhibitor, selective inhibitor, mixed activity modulator) (sodium salt monohydrate): pan activators

COc1cc(C)c(C(=O)Oc2cc(C)c(C(=O)O)c(O)c2C)c(OC)c1C [Diffractaic acid]
class of modulation of Bodipy-GTP binding to Ras family GTPases (pan activator, pan inhibitor, selective inhibitor, mixed activity modulator): pan inhibitors | class of modulation of Bodipy-GTP binding to Ras family GTPases (pan activator, pan inhibitor, selective inhibitor, mixed activity modulator) (listed as Diffractaic Acid): Pan inhibitors

A-7 hydrochloride
class of modulation of Bodipy-GTP binding to Ras family GTPases (pan activator, pan inhibitor, selective inhibitor, mixed activity modulator): pan activators
